Data on one compound can be found in ChEMBL document CHEMBL5727943, “Composition and methods for inhibiting mammalian sterile 20-like kinase 1” (2020).

Test [1] has as its target T1, Serine/threonine-protein kinase 3 (Homo sapiens, UniProt Q13188).
T1 sequence (Q13188 whole entry): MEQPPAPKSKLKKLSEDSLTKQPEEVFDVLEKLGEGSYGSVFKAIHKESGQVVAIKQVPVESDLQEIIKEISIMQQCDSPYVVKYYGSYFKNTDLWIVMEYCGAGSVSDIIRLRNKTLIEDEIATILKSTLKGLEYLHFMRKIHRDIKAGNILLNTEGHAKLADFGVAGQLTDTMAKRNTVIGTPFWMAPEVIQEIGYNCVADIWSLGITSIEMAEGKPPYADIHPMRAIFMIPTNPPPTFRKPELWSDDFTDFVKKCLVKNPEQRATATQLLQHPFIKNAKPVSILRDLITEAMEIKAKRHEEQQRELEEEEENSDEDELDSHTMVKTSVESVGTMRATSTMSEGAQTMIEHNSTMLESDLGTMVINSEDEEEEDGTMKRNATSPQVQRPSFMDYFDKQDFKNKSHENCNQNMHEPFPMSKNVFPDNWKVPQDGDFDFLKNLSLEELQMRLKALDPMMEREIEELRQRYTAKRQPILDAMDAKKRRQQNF
The test is described as follows: (§1) MST1/MST2 Biochemical LanthaScreen Eu Kinase Binding Assay: MST1 and MST2 biochemical LanthaScreen Eu Kinase Binding Assay was based on the binding and displacement of kinase tracer to the kinase of interest. Compounds in 1000×DMSO stock solution was dispensed using automated dispensing system (Labcyte) to 384 well Corning Microplate at 15 nL, 5 uL of Kinase buffer A was added to each well. Plates were shaken and incubated for 1 min to ensure well dissolution of compounds.

Test [2] addresses T2, Serine/threonine-protein kinase 4 (Homo sapiens, UniProt Q13043).
T2 sequence (Q13043 whole entry): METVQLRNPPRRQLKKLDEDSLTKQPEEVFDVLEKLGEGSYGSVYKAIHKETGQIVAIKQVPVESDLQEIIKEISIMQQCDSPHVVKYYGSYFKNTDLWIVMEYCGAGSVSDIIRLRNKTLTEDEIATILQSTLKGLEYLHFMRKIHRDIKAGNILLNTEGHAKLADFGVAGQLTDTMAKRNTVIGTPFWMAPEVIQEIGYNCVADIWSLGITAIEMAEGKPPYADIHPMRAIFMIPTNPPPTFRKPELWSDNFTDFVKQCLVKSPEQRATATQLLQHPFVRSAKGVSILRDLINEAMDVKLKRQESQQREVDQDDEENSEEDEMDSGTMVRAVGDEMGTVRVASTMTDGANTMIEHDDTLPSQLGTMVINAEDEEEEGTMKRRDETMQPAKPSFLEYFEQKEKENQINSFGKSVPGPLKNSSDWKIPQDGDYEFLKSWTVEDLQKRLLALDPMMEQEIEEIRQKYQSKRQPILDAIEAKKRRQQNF
Described as §1.

SMILES strings stand for the structures.

As for `CCOc1cc2ncc(C#N)c(Nc3ccc(OCc4ncccc4C)cc3Cl)c2cc1NC(=O)/C=C/CN(C)C`, the IC50 in test [1] and in test [2] was less than 100 nM each time.
